Square brackets hold non-standard residues; d marks the D form. Peptide text beside a SMILES is read from it. * marks the point of attachment. ξ: configuration not given here. Dansyl = CN(C)c1cccc2c(S(=O)(=O)*)cccc12; ξL = CC(C)CC(N)C(=O)O
Test system: receptor labeled by the radioiodinated analogue of 1 (4, [125I]-YLFQPQRF-NH2); neuropeptide FF receptor
Assay: Competitive radioligand binding against 4 ([125I]Y8F-amide)
Conditions: mixture-based positional scanning; difference from averaged radioligand displacement of whole library (0); about 80 a.u. = 10-fold change in Ki

Relative Binding Index (RBI) [a.u.]	Structure (SMILES)
−23	CC(C)C[C@H](NS(=O)(=O)c1cccc2c(N(C)C)cccc12)C(=O)N[C@@H](Cc1c[nH]c2ccccc12)C(=O)N[C@@H](CCCNC(=N)N)C(N)=O [Dansyl-LWR-amide] (Dansyl-Leu-Trp-Arg-NH2)
−33	CC(C)C[C@H](NS(=O)(=O)c1cccc2c(N(C)C)cccc12)C(=O)N[C@@H](Cc1ccc(O)cc1)C(=O)N[C@@H](CCCNC(=N)N)C(N)=O [Dansyl-LYR-amide] (Dansyl-Leu-Tyr-Arg-NH2)
−93	CSCC[C@H](NS(=O)(=O)c1cccc2c(N(C)C)cccc12)C(=O)N[C@@H](C)C(=O)N[C@@H](CCCNC(=N)N)C(N)=O [Dansyl-MAR-amide] (Dansyl-Met-Ala-Arg-NH2)
−62	CSCC[C@H](NS(=O)(=O)c1cccc2c(N(C)C)cccc12)C(=O)N[C@@H](CC(=O)O)C(=O)N[C@@H](CCCNC(=N)N)C(N)=O [Dansyl-MDR-amide] (Dansyl-Met-Asp-Arg-NH2)
−44	CSCC[C@H](NS(=O)(=O)c1cccc2c(N(C)C)cccc12)C(=O)N[C@@H](CCC(=O)O)C(=O)N[C@@H](CCCNC(=N)N)C(N)=O [Dansyl-MER-amide] (Dansyl-Met-Glu-Arg-NH2)
−45	CSCC[C@H](NS(=O)(=O)c1cccc2c(N(C)C)cccc12)C(=O)N[C@@H](Cc1ccccc1)C(=O)N[C@@H](CCCNC(=N)N)C(N)=O [Dansyl-MFR-amide] (Dansyl-Met-Phe-Arg-NH2)
−39	CSCC[C@H](NS(=O)(=O)c1cccc2c(N(C)C)cccc12)C(=O)NCC(=O)N[C@@H](CCCNC(=N)N)C(N)=O [Dansyl-MGR-amide] (Dansyl-Met-Gly-Arg-NH2)
−50	CSCC[C@H](NS(=O)(=O)c1cccc2c(N(C)C)cccc12)C(=O)N[C@@H](Cc1c[nH]cn1)C(=O)N[C@@H](CCCNC(=N)N)C(N)=O [Dansyl-MHR-amide] (Dansyl-Met-His-Arg-NH2)
−37	CC[C@H](C)[C@H](NC(=O)[C@H](CCSC)NS(=O)(=O)c1cccc2c(N(C)C)cccc12)C(=O)N[C@@H](CCCNC(=N)N)C(N)=O [Dansyl-MIR-amide] (Dansyl-Met-Ile-Arg-NH2)
−46	CSCC[C@H](NS(=O)(=O)c1cccc2c(N(C)C)cccc12)C(=O)N[C@@H](CCCCN)C(=O)N[C@@H](CCCNC(=N)N)C(N)=O [Dansyl-MKR-amide] (Dansyl-Met-Lys-Arg-NH2)
−52	CSCC[C@H](NS(=O)(=O)c1cccc2c(N(C)C)cccc12)C(=O)N[C@@H](CC(C)C)C(=O)N[C@@H](CCCNC(=N)N)C(N)=O [Dansyl-MLR-amide] (Dansyl-Met-Leu-Arg-NH2)
−44	CSCC[C@H](NC(=O)[C@H](CCSC)NS(=O)(=O)c1cccc2c(N(C)C)cccc12)C(=O)N[C@@H](CCCNC(=N)N)C(N)=O [Dansyl-MMR-amide] (Dansyl-Met-Met-Arg-NH2)
−43	CSCC[C@H](NS(=O)(=O)c1cccc2c(N(C)C)cccc12)C(=O)N[C@@H](CC(N)=O)C(=O)N[C@@H](CCCNC(=N)N)C(N)=O [Dansyl-MNR-amide]
−41	CSCC[C@H](NS(=O)(=O)c1cccc2c(N(C)C)cccc12)C(=O)N1CCC[C@H]1C(=O)N[C@@H](CCCNC(=N)N)C(N)=O [Dansyl-MPR-amide] (Dansyl-Met-Pro-Arg-NH2)
−30	CSCC[C@H](NS(=O)(=O)c1cccc2c(N(C)C)cccc12)C(=O)N[C@@H](CCC(N)=O)C(=O)N[C@@H](CCCNC(=N)N)C(N)=O [Dansyl-MQR-amide] (Dansyl-Met-Gln-Arg-NH2)
−45	CSCC[C@H](NS(=O)(=O)c1cccc2c(N(C)C)cccc12)C(=O)N[C@@H](CCCNC(=N)N)C(=O)N[C@@H](CCCNC(=N)N)C(N)=O [Dansyl-MRR-amide] (Dansyl-Met-Arg-Arg-NH2)
−23	CSCC[C@H](NS(=O)(=O)c1cccc2c(N(C)C)cccc12)C(=O)N[C@@H](CO)C(=O)N[C@@H](CCCNC(=N)N)C(N)=O [Dansyl-MSR-amide] (Dansyl-Met-Ser-Arg-NH2)
−38	CSCC[C@H](NS(=O)(=O)c1cccc2c(N(C)C)cccc12)C(=O)N[C@H](C(=O)N[C@@H](CCCNC(=N)N)C(N)=O)[C@@H](C)O [Dansyl-MTR-amide] (Dansyl-Met-Thr-Arg-NH2)
−49	CSCC[C@H](NS(=O)(=O)c1cccc2c(N(C)C)cccc12)C(=O)N[C@H](C(=O)N[C@@H](CCCNC(=N)N)C(N)=O)C(C)C [Dansyl-MVR-amide] (Dansyl-Met-Val-Arg-NH2)
−35	CSCC[C@H](NS(=O)(=O)c1cccc2c(N(C)C)cccc12)C(=O)N[C@@H](Cc1c[nH]c2ccccc12)C(=O)N[C@@H](CCCNC(=N)N)C(N)=O [Dansyl-MWR-amide] (Dansyl-Met-Trp-Arg-NH2)
−45	CSCC[C@H](NS(=O)(=O)c1cccc2c(N(C)C)cccc12)C(=O)N[C@@H](Cc1ccc(O)cc1)C(=O)N[C@@H](CCCNC(=N)N)C(N)=O [Dansyl-MYR-amide] (Dansyl-Met-Tyr-Arg-NH2)

Relative Binding Index (RBI) [a.u.]	Structure (SMILES)
−36	C[C@H](NC(=O)[C@H](CC(N)=O)NS(=O)(=O)c1cccc2c(N(C)C)cccc12)C(=O)N[C@@H](CCCNC(=N)N)C(N)=O [Dansyl-NAR-amide] (Dansyl-Asn-Ala-Arg-NH2)
−5	CN(C)c1cccc2c(S(=O)(=O)N[C@@H](CC(N)=O)C(=O)N[C@@H](CC(=O)O)C(=O)N[C@@H](CCCNC(=N)N)C(N)=O)cccc12 [Dansyl-NDR-amide] (Dansyl-Asn-Asp-Arg-NH2)
11	CN(C)c1cccc2c(S(=O)(=O)N[C@@H](CC(N)=O)C(=O)N[C@@H](Cc3ccccc3)C(=O)N[C@@H](CCCNC(=N)N)C(N)=O)cccc12 [Dansyl-NFR-amide] (Dansyl-Asn-Phe-Arg-NH2)
18	CN(C)c1cccc2c(S(=O)(=O)N[C@@H](CC(N)=O)C(=O)NCC(=O)N[C@@H](CCCNC(=N)N)C(N)=O)cccc12 [Dansyl-NGR-amide] (Dansyl-Asn-Gly-Arg-NH2)
7	CN(C)c1cccc2c(S(=O)(=O)N[C@@H](CC(N)=O)C(=O)N[C@@H](Cc3c[nH]cn3)C(=O)N[C@@H](CCCNC(=N)N)C(N)=O)cccc12 [Dansyl-NHR-amide] (Dansyl-Asn-His-Arg-NH2)
19	CC[C@H](C)[C@H](NC(=O)[C@H](CC(N)=O)NS(=O)(=O)c1cccc2c(N(C)C)cccc12)C(=O)N[C@@H](CCCNC(=N)N)C(N)=O [Dansyl-NIR-amide] (Dansyl-Asn-Ile-Arg-NH2)
10	CN(C)c1cccc2c(S(=O)(=O)N[C@@H](CC(N)=O)C(=O)N[C@@H](CCCCN)C(=O)N[C@@H](CCCNC(=N)N)C(N)=O)cccc12 [Dansyl-NKR-amide] (Dansyl-Asn-Lys-Arg-NH2)
4	CC(C)CC(NC(=O)[C@H](CC(N)=O)NS(=O)(=O)c1cccc2c(N(C)C)cccc12)C(=O)N[C@@H](CCCNC(=N)N)C(N)=O (some centres unmarked) [Dansyl-NLR-amide] (Dansyl-Asn-[ξL]-Arg-NH2)
13	CSCC[C@H](NC(=O)[C@H](CC(N)=O)NS(=O)(=O)c1cccc2c(N(C)C)cccc12)C(=O)N[C@@H](CCCNC(=N)N)C(N)=O [Dansyl-NMR-amide] (Dansyl-Asn-Met-Arg-NH2)
14	CN(C)c1cccc2c(S(=O)(=O)N[C@@H](CC(N)=O)C(=O)N[C@@H](CC(N)=O)C(=O)N[C@@H](CCCNC(=N)N)C(N)=O)cccc12 [Dansyl-NNR-amide] (Dansyl-Asn-Asn-Arg-NH2)
16	CN(C)c1cccc2c(S(=O)(=O)N[C@@H](CC(N)=O)C(=O)N3CCC[C@H]3C(=O)N[C@@H](CCCNC(=N)N)C(N)=O)cccc12 [Dansyl-NPR-amide] (Dansyl-Asn-Pro-Arg-NH2)
26	CN(C)c1cccc2c(S(=O)(=O)N[C@@H](CC(N)=O)C(=O)N[C@@H](CCC(N)=O)C(=O)N[C@@H](CCCNC(=N)N)C(N)=O)cccc12 [Dansyl-NQR-amide] (Dansyl-Asn-Gln-Arg-NH2)
11	CN(C)c1cccc2c(S(=O)(=O)N[C@@H](CC(N)=O)C(=O)N[C@@H](CCCNC(=N)N)C(=O)N[C@@H](CCCNC(=N)N)C(N)=O)cccc12 [Dansyl-NRR-amide] (Dansyl-Asn-Arg-Arg-NH2)
33	CN(C)c1cccc2c(S(=O)(=O)N[C@@H](CC(N)=O)C(=O)N[C@@H](CO)C(=O)N[C@@H](CCCNC(=N)N)C(N)=O)cccc12 [Dansyl-NSR-amide] (Dansyl-Asn-Ser-Arg-NH2)
18	C[C@@H](O)[C@H](NC(=O)[C@H](CC(N)=O)NS(=O)(=O)c1cccc2c(N(C)C)cccc12)C(=O)N[C@@H](CCCNC(=N)N)C(N)=O [Dansyl-NTR-amide] (Dansyl-Asn-Thr-Arg-NH2)
8	CC(C)[C@H](NC(=O)[C@H](CC(N)=O)NS(=O)(=O)c1cccc2c(N(C)C)cccc12)C(=O)N[C@@H](CCCNC(=N)N)C(N)=O [Dansyl-NVR-amide] (Dansyl-Asn-Val-Arg-NH2)
22	CN(C)c1cccc2c(S(=O)(=O)N[C@@H](CC(N)=O)C(=O)N[C@@H](Cc3c[nH]c4ccccc34)C(=O)N[C@@H](CCCNC(=N)N)C(N)=O)cccc12 [Dansyl-NWR-amide] (Dansyl-Asn-Trp-Arg-NH2)
12	CN(C)c1cccc2c(S(=O)(=O)N[C@@H](CC(N)=O)C(=O)N[C@@H](Cc3ccc(O)cc3)C(=O)N[C@@H](CCCNC(=N)N)C(N)=O)cccc12 [Dansyl-NYR-amide] (Dansyl-Asn-Tyr-Arg-NH2)
−97	C[C@H](NC(=O)[C@@H]1CCCN1S(=O)(=O)c1cccc2c(N(C)C)cccc12)C(=O)N[C@@H](CCCNC(=N)N)C(N)=O [Dansyl-PAR-amide] (Dansyl-Pro-Ala-Arg-NH2)
−66	CN(C)c1cccc2c(S(=O)(=O)N3CCC[C@H]3C(=O)N[C@@H](CC(=O)O)C(=O)N[C@@H](CCCNC(=N)N)C(N)=O)cccc12 [Dansyl-PDR-amide] (Dansyl-Pro-Asp-Arg-NH2)
